From publication PMC5218480 (PLoS ONE, 2017)

Test system: MV-4-11 cells
Assay: Gene expression microarray analysis (Affymetrix PrimeView) and GSEA
Format: cell-based, human
Parameters: RFU PODN (11730768_x_at) / Fold change /veh PODN (11730768_x_at) / RFU LINC00158 (11744669_a_at) / Fold change /veh LINC00158 (11744669_a_at) / RFU DUSP10 (11751237_a_at) / Fold change /veh DUSP10 (11751237_a_at) / RFU ID3 (11757404_x_at) / Fold change /veh ID3 (11757404_x_at) / RFU PLEKHG5 (11737974_s_at) / Fold change /veh PLEKHG5 (11737974_s_at) / RFU LRRC4B (11730491_at) / Fold change /veh LRRC4B (11730491_at) / RFU GIMAP4 (11747438_a_at) / Fold change /veh GIMAP4 (11747438_a_at) / RFU KRT8 (11758183_x_at) / Fold change /veh KRT8 (11758183_x_at) / RFU CNN1 (11734310_a_at) / Fold change /veh CNN1 (11734310_a_at) / RFU VPS37D (11726825_at) / Fold change /veh VPS37D (11726825_at) / RFU C10orf10 (11716522_x_at) / Fold change /veh C10orf10 (11716522_x_at) / RFU KIR2DL2 /// KIR2DL4 /// KIR2DL5A /// KIR2DL5B /// KIR2DS1 /// KIR2DS2 /// KIR2DS3 /// KIR2DS4 /// KIR3DL3 /// KIR3DL3 /// KIR3DS1 (11738374_at) / Fold change /veh KIR2DL2 /// KIR2DL4 /// KIR2DL5A /// KIR2DL5B /// KIR2DS1 /// KIR2DS2 /// KIR2DS3 /// KIR2DS4 /// KIR3DL3 /// KIR3DL3 /// KIR3DS1 (11738374_at) / RFU C1QL1 (11718748_at) / Fold change /veh C1QL1 (11718748_at) / RFU TMPRSS4 (11747572_a_at) / Fold change /veh TMPRSS4 (11747572_a_at) / RFU HAMP (11756126_x_at) / Fold change /veh HAMP (11756126_x_at) / RFU RNFT2 (11725882_a_at) / Fold change /veh RNFT2 (11725882_a_at) / RFU NR4A2 (11747474_a_at) / Fold change /veh NR4A2 (11747474_a_at) / RFU ABCC12 (11746883_a_at) / Fold change /veh ABCC12 (11746883_a_at) / RFU TMEM136 (11760407_x_at) / Fold change /veh TMEM136 (11760407_x_at) / RFU CLDN22 /// WWC2 (11732394_at) / Fold change /veh CLDN22 /// WWC2 (11732394_at) / RFU HLA-DPB1 (11760878_x_at) / Fold change /veh HLA-DPB1 (11760878_x_at) / RFU SPINT1 (11716480_a_at) / Fold change /veh SPINT1 (11716480_a_at) / RFU GAP43 (11754022_s_at) / Fold change /veh GAP43 (11754022_s_at) / RFU A4GNT (11735810_at) / Fold change /veh A4GNT (11735810_at) / RFU PRB3 (11715151_x_at) / Fold change /veh PRB3 (11715151_x_at) / RFU TUBB4B (11761932_at) / Fold change /veh TUBB4B (11761932_at) / RFU CAPN14 (11732068_a_at) / Fold change /veh CAPN14 (11732068_a_at) / RFU TMCC2 (11721928_a_at) / Fold change /veh TMCC2 (11721928_a_at) / RFU IRGQ (11745062_a_at) / Fold change /veh IRGQ (11745062_a_at) / RFU FAM174B (11720279_a_at) / Fold change /veh FAM174B (11720279_a_at) / RFU TMPRSS4 (11748680_a_at) / Fold change /veh TMPRSS4 (11748680_a_at) / RFU FAM212B (11763350_a_at) / Fold change /veh FAM212B (11763350_a_at) / RFU PLEKHG5 (11743358_a_at) / Fold change /veh PLEKHG5 (11743358_a_at) / RFU ZSCAN30 (11745921_a_at) / Fold change /veh ZSCAN30 (11745921_a_at) / RFU CMKLR1 (11741424_a_at) / Fold change /veh CMKLR1 (11741424_a_at) / RFU LOC101060620 /// MAPK8IP1 (11723275_at) / Fold change /veh LOC101060620 /// MAPK8IP1 (11723275_at) / RFU SPTSSB (11747773_x_at) / Fold change /veh SPTSSB (11747773_x_at) / RFU PRSS12 (11739890_at) / Fold change /veh PRSS12 (11739890_at) / RFU BIN1 (11741810_x_at) / Fold change /veh BIN1 (11741810_x_at) / RFU WNT11 (11732464_a_at) / Fold change /veh WNT11 (11732464_a_at) / RFU C10orf10 (11716521_a_at) / Fold change /veh C10orf10 (11716521_a_at) / RFU C5orf56 (11738089_at) / Fold change /veh C5orf56 (11738089_at) / RFU CYB561 (11721691_x_at) / Fold change /veh CYB561 (11721691_x_at) / RFU ANKRD19P (11752326_a_at) / Fold change /veh ANKRD19P (11752326_a_at) / RFU OR2T12 /// OR2T33 /// OR2T8 (11738714_s_at) / Fold change /veh OR2T12 /// OR2T33 /// OR2T8 (11738714_s_at) / RFU VCAN (11748164_a_at) / Fold change /veh VCAN (11748164_a_at) / RFU JSRP1 (11732532_at) / Fold change /veh JSRP1 (11732532_at) / RFU KRTAP10-11 (11738290_x_at) / Fold change /veh KRTAP10-11 (11738290_x_at) / RFU MYO3A (11730013_a_at) / Fold change /veh MYO3A (11730013_a_at) / RFU EBF3 (11725865_a_at) / Fold change /veh EBF3 (11725865_a_at) / RFU CAMK2N1 (11719241_x_at) / Fold change /veh CAMK2N1 (11719241_x_at) / RFU C5orf56 (11738088_a_at) / Fold change /veh C5orf56 (11738088_a_at) / RFU OLFML3 (11715873_a_at) / Fold change /veh OLFML3 (11715873_a_at) / RFU LOC100653217 /// NTM (11731650_a_at) / Fold change /veh LOC100653217 /// NTM (11731650_a_at) / RFU MAPK11 (11762145_a_at) / Fold change /veh MAPK11 (11762145_a_at) / RFU FIZ1 (11724087_x_at) / Fold change /veh FIZ1 (11724087_x_at) / RFU OASL (11726364_x_at) / Fold change /veh OASL (11726364_x_at) / RFU SOX15 (11748057_x_at) / Fold change /veh SOX15 (11748057_x_at) / RFU CD79A (11719716_a_at) / Fold change /veh CD79A (11719716_a_at) / RFU HIST1H1D (11736915_at) / Fold change /veh HIST1H1D (11736915_at) / RFU CASKIN2 (11723855_a_at) / Fold change /veh CASKIN2 (11723855_a_at) / RFU LOC730098 (11760151_x_at) / Fold change /veh LOC730098 (11760151_x_at) / RFU OR4N2 (11742367_at) / Fold change /veh OR4N2 (11742367_at) / RFU PRRT2 (11749266_a_at) / Fold change /veh PRRT2 (11749266_a_at) / RFU SNX32 (11753110_a_at) / Fold change /veh SNX32 (11753110_a_at) / RFU CDHR5 (11726645_a_at) / Fold change /veh CDHR5 (11726645_a_at) / RFU RCAN1 (11760418_a_at) / Fold change /veh RCAN1 (11760418_a_at) / RFU FAM167A (11723789_a_at) / Fold change /veh FAM167A (11723789_a_at) / RFU FAM26E (11764081_at) / Fold change /veh FAM26E (11764081_at) / RFU ISYNA1 (11749810_s_at) / Fold change /veh ISYNA1 (11749810_s_at) / RFU ACY1 (11761880_at) / Fold change /veh ACY1 (11761880_at) / RFU 11764098_at / Fold change /veh 11764098_at / RFU SAMD14 (11745864_x_at) / Fold change /veh SAMD14 (11745864_x_at) / RFU NPB (11741838_a_at) / Fold change /veh NPB (11741838_a_at) / RFU TMPRSS6 (11731388_a_at) / Fold change /veh TMPRSS6 (11731388_a_at) / RFU KRTAP10-2 (11738614_at) / Fold change /veh KRTAP10-2 (11738614_at) / RFU ARHGAP8 /// PRR5-ARHGAP8 (11727945_x_at) / Fold change /veh ARHGAP8 /// PRR5-ARHGAP8 (11727945_x_at) / RFU KRTAP5-7 /// NADSYN1 (11734609_at) / Fold change /veh KRTAP5-7 /// NADSYN1 (11734609_at) / RFU RASL12 (11751679_a_at) / Fold change /veh RASL12 (11751679_a_at) / RFU CDKN2B (11736163_a_at) / Fold change /veh CDKN2B (11736163_a_at) / RFU PRF1 (11729649_at) / Fold change /veh PRF1 (11729649_at) / RFU, ZNF638 /// ZNF638-IT1 / Fold change vs veh, ZNF638 /// ZNF638-IT1 / RFU, PANK3 / Fold change vs veh, PANK3 / RFU, SH3YL1 / Fold change vs veh, SH3YL1 / RFU, ZEB2 / Fold change vs veh, ZEB2 / RFU, NRIP1 / Fold change vs veh, NRIP1 / RFU, PTTG1IP / Fold change vs veh, PTTG1IP / RFU, CAPN2 / Fold change vs veh, CAPN2 / RFU, MED14 / Fold change vs veh, MED14 / RFU, SNORA58 / Fold change vs veh, SNORA58 / RFU, C1orf63 / Fold change vs veh, C1orf63 / RFU, LRRFIP1 / Fold change vs veh, LRRFIP1 / RFU, NDUFAF7 / Fold change vs veh, NDUFAF7 / RFU, SLC12A2 / Fold change vs veh, SLC12A2 / RFU, IBTK / Fold change vs veh, IBTK / RFU, ESF1 / Fold change vs veh, ESF1 / Fold change vs veh, TMEM50B / RFU, TAOK1 / Fold change vs veh, TAOK1 / RFU, ACBD3 / Fold change vs veh, ACBD3 / RFU, TMA16 / Fold change vs veh, TMA16 / RFU, RWDD3 / Fold change vs veh, RWDD3 / RFU, BCAT1 / Fold change vs veh, BCAT1 / RFU, EDEM3 / Fold change vs veh, EDEM3 / RFU, TMEM33 / Fold change vs veh, TMEM33 / RFU, WDR75 / Fold change vs veh, WDR75 / RFU, AHCTF1 / Fold change vs veh, AHCTF1 / RFU, TFRC / Fold change vs veh, TFRC / RFU, ZDHHC17 / Fold change vs veh, ZDHHC17 / RFU, NOM1 / Fold change vs veh, NOM1 / RFU, ARL8B / Fold change vs veh, ARL8B / RFU, ZBTB11 / Fold change vs veh, ZBTB11 / RFU, TAMM41 / Fold change vs veh, TAMM41 / RFU, KIAA1704 /// LOC100996395 / Fold change vs veh, KIAA1704 /// LOC100996395 / RFU, ING1 / Fold change vs veh, ING1 / RFU, TRMT61B / Fold change vs veh, TRMT61B / RFU, FUBP3 / Fold change vs veh, FUBP3 / RFU, TP53 / Fold change vs veh, TP53 / RFU, TNKS2 / Fold change vs veh, TNKS2 / RFU, ZFP14 / Fold change vs veh, ZFP14 / RFU, ACTR2 / Fold change vs veh, ACTR2 / RFU, PPP3R1 / Fold change vs veh, PPP3R1 / RFU, PIK3R1 / Fold change vs veh, PIK3R1 / RFU, HNRNPA1 / Fold change vs veh, HNRNPA1 / RFU, RNF170 / Fold change vs veh, RNF170 / RFU, ZNF28 / Fold change vs veh, ZNF28 / RFU, RNGTT / Fold change vs veh, RNGTT / RFU, OGT / Fold change vs veh, OGT / RFU, BRD1 / Fold change vs veh, BRD1 / RFU, MARS / Fold change vs veh, MARS / RFU, ZNF655 / Fold change vs veh, ZNF655 / RFU, FAHD1 / Fold change vs veh, FAHD1 / RFU, BDP1 / Fold change vs veh, BDP1 / RFU, LRRCC1 / Fold change vs veh, LRRCC1 / RFU, ARID1A / Fold change vs veh, ARID1A / RFU, ZNF146 / Fold change vs veh, ZNF146 / RFU, ZNF330 / Fold change vs veh, ZNF330 / RFU, GPN3 / Fold change vs veh, GPN3 / RFU, C9orf123 / Fold change vs veh, C9orf123 / RFU, N4BP2L2 / Fold change vs veh, N4BP2L2 / RFU, ARFIP1 / Fold change vs veh, ARFIP1 / RFU, FAM179B / Fold change vs veh, FAM179B / RFU, BCL10 / Fold change vs veh, BCL10 / RFU, UHRF1BP1L / Fold change vs veh, UHRF1BP1L / RFU, BET1 / Fold change vs veh, BET1 / RFU, CNOT2 / Fold change vs veh, CNOT2 / RFU, ZNF268 / Fold change vs veh, ZNF268 / Fold change vs veh, ZNF507 / RFU, DGCR2 / Fold change vs veh, DGCR2 / RFU, WDSUB1 / Fold change vs veh, WDSUB1 / Fold change vs veh, HSP90B1 /// MIR3652 / RFU, ADSS / Fold change vs veh, ADSS / RFU, GK / Fold change vs veh, GK / RFU, ZNF148 / Fold change vs veh, ZNF148 / RFU, TAF9 / Fold change vs veh, TAF9 / RFU, SLC1A5 / Fold change vs veh, SLC1A5 / RFU, SLMO2 / Fold change vs veh, SLMO2 / RFU, ABCC4 / Fold change vs veh, ABCC4 / RFU, LOC101060439 /// RAP1B / Fold change vs veh, LOC101060439 /// RAP1B / RFU, RFX7 / Fold change vs veh, RFX7 / RFU, GTPBP10 / Fold change vs veh, GTPBP10 / RFU, CNEP1R1 / Fold change vs veh, CNEP1R1 / RFU, BIVM-ERCC5 /// ERCC5 / Fold change vs veh, BIVM-ERCC5 /// ERCC5 / RFU, ILF3 / Fold change vs veh, ILF3 / RFU 11762660_at / Fold change /veh 11762660_at / RFU VCAN (11757783_s_at) / Fold change /veh VCAN (11757783_s_at) / RFU DDX43 (11728927_at) / Fold change /veh DDX43 (11728927_at) / RFU KRT8 (11758188_x_at) / Fold change /veh KRT8 (11758188_x_at) / RFU NKD1 (11759106_at) / Fold change /veh NKD1 (11759106_at) / RFU SRD5A1 (11742802_a_at) / Fold change /veh SRD5A1 (11742802_a_at) / RFU TPSAB1 /// TPSB2 (11721975_s_at) / Fold change /veh TPSAB1 /// TPSB2 (11721975_s_at) / RFU GSTM3 (11746129_a_at) / Fold change /veh GSTM3 (11746129_a_at) / RFU IL23R (11737362_x_at) / Fold change /veh IL23R (11737362_x_at) / RFU TMEM51 (11727254_a_at) / Fold change /veh TMEM51 (11727254_a_at) / RFU PIWIL2 (11732686_x_at) / Fold change /veh PIWIL2 (11732686_x_at) / RFU ORM1 (11744905_x_at) / Fold change /veh ORM1 (11744905_x_at) / RFU CCDC152 (11743942_at) / Fold change /veh CCDC152 (11743942_at) / RFU ECM1 (11717891_a_at) / Fold change /veh ECM1 (11717891_a_at) / RFU IL23R (11748794_a_at) / Fold change /veh IL23R (11748794_a_at) / RFU TNFAIP8L3 (11732012_x_at) / Fold change /veh TNFAIP8L3 (11732012_x_at) / RFU MBOAT4 (11741988_at) / Fold change /veh MBOAT4 (11741988_at) / RFU 11764193_at / Fold change /veh 11764193_at / RFU TMEM53 (11763286_at) / Fold change /veh TMEM53 (11763286_at) / RFU MAGEB2 (11727129_at) / Fold change /veh MAGEB2 (11727129_at) / RFU TMEM200A (11744735_a_at) / Fold change /veh TMEM200A (11744735_a_at) / RFU CCDC152 (11751479_a_at) / Fold change /veh CCDC152 (11751479_a_at) / RFU FAM211A (11726209_a_at) / Fold change /veh FAM211A (11726209_a_at) / RFU RGS16 (11746705_a_at) / Fold change /veh RGS16 (11746705_a_at) / RFU VCAN (11755009_s_at) / Fold change /veh VCAN (11755009_s_at) / RFU RHOB (11743442_s_at) / Fold change /veh RHOB (11743442_s_at) / RFU RGS16 (11720943_a_at) / Fold change /veh RGS16 (11720943_a_at) / RFU RGS16 (11720944_at) / Fold change /veh RGS16 (11720944_at) / RFU, VPS4B / Fold change vs veh, VPS4B / RFU, CREB1 / Fold change vs veh, CREB1 / RFU, DNAJC13 / Fold change vs veh, DNAJC13 / RFU, GNAQ / Fold change vs veh, GNAQ / RFU, CDK5R1 / Fold change vs veh, CDK5R1 / RFU, ZRANB3 / Fold change vs veh, ZRANB3 / RFU, CUL4A / Fold change vs veh, CUL4A / RFU, CCNY / Fold change vs veh, CCNY / RFU, UFL1 / Fold change vs veh, UFL1 / RFU, COG3 / Fold change vs veh, COG3 / RFU, DIAPH2 / Fold change vs veh, DIAPH2 / RFU, SKA2 / Fold change vs veh, SKA2 / RFU, AFF3 / Fold change vs veh, AFF3 / RFU, LMF1 / Fold change vs veh, LMF1 / RFU, IPO11 / Fold change vs veh, IPO11 / RFU, DFFB / Fold change vs veh, DFFB / RFU, FOXP1 / Fold change vs veh, FOXP1 / RFU, CARD8 / Fold change vs veh, CARD8 / RFU, STRN3 / Fold change vs veh, STRN3 / RFU, ADK / Fold change vs veh, ADK / RFU, RASSF2 / Fold change vs veh, RASSF2 / RFU, WIPF1 / Fold change vs veh, WIPF1 / RFU, LARP1B / Fold change vs veh, LARP1B / RFU, RASA1 / Fold change vs veh, RASA1 / RFU, RB1 / Fold change vs veh, RB1 / RFU, PPFIA1 / Fold change vs veh, PPFIA1 / RFU, MAT2A / Fold change vs veh, MAT2A / RFU, CCT5 / Fold change vs veh, CCT5 / RFU, WDR92 / Fold change vs veh, WDR92 / RFU, CUX1 / Fold change vs veh, CUX1 / RFU, TTC7A / Fold change vs veh, TTC7A / RFU, TMEM135 / Fold change vs veh, TMEM135 / RFU, DEPTOR / Fold change vs veh, DEPTOR / RFU, CPM / Fold change vs veh, CPM / RFU, DNAJB6 / Fold change vs veh, DNAJB6 / RFU, CACNA2D3 / Fold change vs veh, CACNA2D3 / RFU, DTX4 / Fold change vs veh, DTX4 / RFU, TFCP2 / Fold change vs veh, TFCP2 / RFU, GMCL1 /// GMCL1P1 / Fold change vs veh, GMCL1 /// GMCL1P1 / RFU, AEBP2 / Fold change vs veh, AEBP2 / RFU, SNHG1 /// SNORD22 /// SNORD25 /// SNORD26 /// SNORD27 /// SNORD28 /// SNORD29 /// SNORD31 / Fold change vs veh, SNHG1 /// SNORD22 /// SNORD25 /// SNORD26 /// SNORD27 /// SNORD28 /// SNORD29 /// SNORD31 / Fold change (Aza/veh), C12orf56 (ProbeSet 11735607_a_at) / Fold change (ACY-1035/veh), C12orf56 (ProbeSet 11735607_a_at) / Fold change (Aza/veh), FGFR1OP (ProbeSet 11751329_s_at) / Fold change (ACY-1035/veh), FGFR1OP (ProbeSet 11751329_s_at) / Fold change (Aza/veh), VPS36 (ProbeSet 11739960_a_at) / Fold change (ACY-1035/veh), VPS36 (ProbeSet 11739960_a_at) / RFU SYPL1 (11715823_x_at) / Fold change /veh SYPL1 (11715823_x_at) / RFU IGFBP7 (11715501_s_at) / Fold change /veh IGFBP7 (11715501_s_at) / RFU REEP3 (11722064_at) / Fold change /veh REEP3 (11722064_at) / RFU IGLL1 (11728026_x_at) / Fold change /veh IGLL1 (11728026_x_at): dose or concentration left out as unconfirmed
Conditions: ProbeSet 11727958_a_at; LIST B

## Nc1ncn([C@@H]2O[C@H](CO)[C@@H](O)[C@H]2O)c(=O)n1 [azacitidine]
  Fold change vs veh, ING1: 0.99
